According to US20250092032A1, “DEOXYCYTIDINE KINASE INHIBITORS” (CENTRE NATIONAL DE LA RECHERCHE SCIENTIFIQUE, priority 2022, published 2025):

Test system: CCRF-CEM T-ALL cell line
Assay: In vivo systemic leukemia model: NSG mice inoculated intravenously with luciferase-expressing CCRF-CEM cells
Procedure: Healthy 6 to 9 weeks-old male mice received 0.1×10^6 luciferase transduced-CCRF-CEM cells in the tail vein on Day 0 and were randomly assigned in four groups to receive intraperitoneal injections from Day 3 (Vehicle (n=8), dT (n=8), OR0642 (n=9) and dT+OR0642 (n=9)). […] Doses administered were: dT at 1.5 g/Kg, OR0642 at 40 mg/Kg and dT+OR0642 at 1.5 g/Kg and 40 mg/Kg, respectively. Vehicle was saline solution (0.9% NaCl) supplemented with 10% Kolliphor EL. OR0642 was administered in its hydrochloride salt form. Drug administration protocol is detailed in FIG. 4. Bioluminescence analysis was performed once/week using PhotonIMAGER Optima (Biospace Lab) following addition of endotoxin-free luciferin (30 mg/kg, Promega). Peripheral blood was obtained at Day 21 to determine the fraction of human blasts using flow cytometry. […] Analyses were performed on a Life Science Research Fortessa flow cytometer with DIVA software (BD Biosciences). The number of ALL cells/L peripheral blood was determined by using CountBright beads (Invitrogen, C36950) using described protocol. Daily monitoring of mice for symptoms of disease (ruffled coat, hunched back, weakness and reduced motility) determined the time of killing for injected animals with signs of distress. Kaplan-Meier curves, bioluminescence quantifications and statistical analyses were generated using Prism (Graphpad Software). Bioluminescence data were presented as the mean f SEM. Comparison of bioluminescence data at Day 21 was performed using One way ANOVA Kruskal-Wallis Test and Dunn's Multiple Comparison Test. Comparison of hCD45 populations was performed using One way ANOVA Kruskal-Wallis Test and Dunn's Multiple Comparison Test. Median survival times were compared using Log-Rank (Mantel-Cox) Test.

Question: How did the “effect on disease progression / disease burden (bioluminescence)” value (CCRF-CEM leukemia bearing NSG mice, dT 1.5 g/Kg, OR0642 40 mg/Kg (hydrochloride salt) i.p., FIG. 5) turn out when `Cc1cn([C@H]2C[C@H](O)[C@@H](CO)O2)c(=O)[nH]c1=O` [dT, 1-[(2R,4S,5R)-4-Hydroxy-5-(hydroxymethyl)oxolan-2-yl]-5-methylpyrimidine-2,4(1H,3H)-dione, reference compound] was run?
Answer: The value was “scarcely reduced the disease burden”.

Question: And the “day around which most of the mice died” value (the two components administered separately, FIG. 8)?
Answer: Its value is about 26 days.
